Measured values from patent US11819021B2, “Peptides and methods and uses thereof for modulating anaphase promoting complex (APC) activity” (University of Saskatchewan, priority 2017, dated 2023).
“Also recorded” adds a separate entry of the source.

Assays:
[1] = tested on: yeast proteins; test: Yeast 2-hybrid assay for proteins interacting with the peptides; format: binding
[2] = tested on: APC mutant (apc5 temperature sensitive mutant and/or apc10Δ mutant); test: Viability/growth of APC mutant yeast cells; format: cell-based
Experimental: (§1) A. apc5^CA cells expressing small peptides were assayed for replicative life span (RLS). B. Cells expressing HTZ1 were grown under stress conditions. HTZ1 expression, even at low levels, suppresses apc5^CA and apc10Δ defects. The cells shown were transformed with either an empty vector or GAL inducible HTZ1. On 2% glucose, the construct is weakly expressed, and this is enough to increase growth of APC mutants at 30° C.
Examples of yeast cells with defective anaphase promoting complex (APC) function include apc5 and apc10 mutants. An example of an apc5 mutant is the apc5 temperature sensitive mutant described herein. An example of an apc10 mutant is the apc10 deletion mutant described herein.
(§2) The reverse genetic screen utilized a yeast 2-hybrid (Y2H) protocol that selected for peptides that bound to the APC subunits Apc5 or Apc10 (see FIG. 5 for APC structure), to assess whether peptide-binding might modify APC function. Peptides that bound APC subunits were then assayed for those that suppressed APC mutant defects.
(§3) Over 100 peptides that bound either Apc5 or Apc10 were recovered from millions screened. Six peptides that reproducibly interacted with the Apc10 bait construct in Y2H assays were examined further. Vectors expressing these 6 peptides were transformed into APC mutant cells and assessed for ts growth.

[3] = target: T1, Apc5 (Saccharomyces cerevisiae, UniProt Q08683); test: Yeast 2-hybrid (Y2H) binding of peptide prey to Apc5 bait; details: galactose-inducible Trx-scaffold peptide prey
T1 construct: expressed in transfected cells; host or cells: yeast Y2H cells
T1 sequence (Q08683 1-685): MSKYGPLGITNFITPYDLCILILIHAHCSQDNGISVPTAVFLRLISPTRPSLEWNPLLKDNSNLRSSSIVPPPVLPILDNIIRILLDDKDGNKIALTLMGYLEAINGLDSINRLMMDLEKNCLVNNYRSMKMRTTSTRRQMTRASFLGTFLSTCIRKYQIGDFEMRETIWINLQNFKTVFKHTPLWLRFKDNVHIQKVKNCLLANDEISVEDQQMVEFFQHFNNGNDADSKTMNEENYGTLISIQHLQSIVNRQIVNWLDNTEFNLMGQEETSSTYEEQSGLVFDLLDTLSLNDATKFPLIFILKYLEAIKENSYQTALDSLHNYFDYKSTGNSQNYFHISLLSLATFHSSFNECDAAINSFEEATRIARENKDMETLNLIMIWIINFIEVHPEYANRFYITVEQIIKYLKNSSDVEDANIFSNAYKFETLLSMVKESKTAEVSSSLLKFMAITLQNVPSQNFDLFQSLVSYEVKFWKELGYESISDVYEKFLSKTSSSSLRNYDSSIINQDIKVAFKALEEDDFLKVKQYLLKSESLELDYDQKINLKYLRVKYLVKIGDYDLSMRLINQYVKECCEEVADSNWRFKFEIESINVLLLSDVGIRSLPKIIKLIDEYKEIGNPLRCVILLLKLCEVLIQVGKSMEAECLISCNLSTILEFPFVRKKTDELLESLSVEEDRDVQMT
Experimental: as §2
(§4) Random small peptides were cloned into the TrxA scaffold (library provided by R. Geyer, U of S) and expressed from a galactose-inducible Y2H prey vector in cells harboring either APC5 or APC10 Y2H bait vectors (APC5/APC10 bait constructs complement APC mutant defects).
as §3

[4] = target: T2, Apc10 (Saccharomyces cerevisiae, UniProt P53068); test: Yeast 2-hybrid (Y2H) binding of peptide prey to Apc10 bait; details: galactose-inducible Trx-scaffold peptide prey
T2 construct: expressed in transfected cells; host or cells: yeast Y2H cells
T2 sequence (P53068 1-250): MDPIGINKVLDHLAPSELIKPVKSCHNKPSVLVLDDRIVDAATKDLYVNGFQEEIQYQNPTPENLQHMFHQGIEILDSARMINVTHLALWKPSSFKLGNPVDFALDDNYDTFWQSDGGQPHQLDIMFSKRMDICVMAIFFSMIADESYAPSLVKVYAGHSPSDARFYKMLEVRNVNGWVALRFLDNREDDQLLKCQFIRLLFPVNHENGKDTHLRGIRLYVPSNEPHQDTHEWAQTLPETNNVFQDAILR
Experimental: as §2
A library of random small peptides were cloned into a Thioredoxin (Trx) scaffold (see FIG. 6 for Trx-aptamer structure) and expressed from a galactose-inducible Y2H prey vector in cells expressing the Apc10 bait vector (the modified Apc10 is still part of the complete APC complex). Six peptides that reproducibly interacted with the Apc10 bait construct in Y2H assays were identified (FIG. 1A) and were examined further.
as §4, §3

[5] = tested on: wild type (WT) yeast cells; test: Spot dilution growth and stress resistance of wild type yeast cells expressing peptides; format: cell-based
Experimental: (§5) A. apc5^CA (temperature sensitive allele) cells were transformed with C43-4, C2-4B or an empty vector. Cells grown overnight in 2% Glu were struck onto 2% Glucose plates and used for the yeast replicative lifespan (RLS) assay. B. Wild type (WT) cells transformed with C43-4, C2-4B or an empty vector were grown to stationary phase in 2% Glu media, then after 2 days spot diluted onto 2% Glu or 2% Gal to induce expression of the aptamers.
The cells were exposed to 5 sec of UV from a UV box prior to incubation. The plus signs define growth compared to the empty vector control.
(§6) The six peptide expressing vectors were transformed into apc10Δ cells and assessed for temperature sensitive growth. Two of the peptides, C43-4 and C2-4B, suppressed the apc10Δ growth phenotype at 30 and 34° C. (FIG. 1B-D). […] However, C43-4 and C2-4B increased replicative and chronological lifespan in both apc5^CA and WT cells, respectively (FIG. 2A). […] H2O2 induces oxidative stress whereas galactose induces a carbon stress.
These cells were spot diluted on Trp-plates and grown at the temperatures shown and/or exposed to ultraviolet (UV) irradiation (FIG. 11). At low level expression on glucose, some of the mutations caused stress dependent phenotypes.
Methods • 1. Cells were cultured overnight in Trp-2% glucose media • 2. The growth of the cells was determined by measuring the optical density (OD) of the cells at 600 nm (OD600) • 3. Cells were diluted to OD600 of 1 with fresh culture media • 4. 100 ul of each culture was pipetted into a well of a 96 well plate • 5. 10 ul of the each starting culture was pipetted into 90 ul of water in 4 additional wells to make a 10-fold serial spot dilution • 6. 5 ul from each serial dilution was spotted onto plates containing standard growth media with either 2% glucose or 2% galactose using a multi-pipettor • 7. The plates were exposed to UV • 8. The plates were then placed at room temperature, 30, 34 or 37° C. for 3-7 days • 9. The plates were scanned and saved as tiff files

[6] = tested on: apc10Δ cells; test: Spot dilution growth of apc10Δ cells expressing peptides; format: cell-based, yeast
Description: A. Y2H cells expressing the APC subunit bait and the galactose inducible Apc10 peptide prey grown on glucose or galactose. Cells co-expressing the Apc5 or Apc10-bait and Apc10 aptamer-prey vectors were spotted onto the appropriate media, in the presence or absence of galactose (the aptamers are Gal inducible), to confirm 2-hybrid interactions. Growth on trp-his-media ensures both plasmids are maintained. A 2-hybrid interaction will drive expression of the ADE2 gene, allowing growth on ade-media. B. Aptamers that bind Apc10 can suppress APC mutant phenotypes. Spot dilutions of apc10Δ cells expressing an empty vector control or the one of 6 Apc10 aptamers tested. Log phase cells were 10-fold serially diluted and spotted onto plates containing either 2% glucose or 2% galactose. The plates were then incubated at 30° C. (permissive temperature) and 34° C. (restrictive stress). C. Peptides identified as binding to the yeast Apc10 APC subunit using the yeast 2-hybrid screen increase growth of cells on stress conditions. A series of APC binding peptides were transformed into wild type yeast cells, spot diluted, and grown at 30° C. on media supplemented with the normal carbon source (2% glucose). Alternatively, cells were grown on media supplemented with 2% galactose to induce a carbon stress. D. Peptides were expressed in apc5^ts temperature sensitive cells and grown on glucose or galactose media at 30° C.
The cells were exposed to 5 sec of UV from a UV box prior to incubation.
The six peptide expressing vectors were transformed into apc10Δ cells and assessed for temperature sensitive growth. Two of the peptides, C43-4 and C2-4B, suppressed the apc10Δ growth phenotype at 30 and 34° C. (FIG. 1B-D). […]
Over 100 peptides that bound either Apc5 or Apc10 were recovered from millions screened. […] Vectors expressing these 6 peptides were transformed into APC mutant cells and assessed for ts growth.
Methods • 1. […] The growth of the cells was determined by measuring the optical density (OD) of the cells at 600 nm (OD600) • 3. […]

[7] = tested on: apc5^CA cells; test: Yeast replicative lifespan (RLS) assay; format: cell-based
Experimental: as §5, §1

[8] = tested on: WT cells; test: Chronological lifespan of WT yeast cells; format: cell-based
Experimental: as §5, §6

[9] = tested on: apc5^CA temperature sensitive mutant; test: Forward genetic screen: rescue of apc5^CA temperature sensitive growth; format: cell-based, yeast
Description: Using a forward genetic screen to test whether temperature sensitive (ts) APC mutants expressing random small peptides could grow at restrictive temperatures, millions of small peptides were rapidly screened for those that could restore mutant APC phenotypes. Peptides that rescued the apc5^CA ts (temperature sensitive) defect were recovered including peptides Y65 and Y36.
In the forward screens, with galactose-inducible TrxA-based peptide libraries, in cells harboring the apc5^CA ts allele, over 200 peptides (from millions screened) suppressed the ts phenotype. Several recovered plasmids were sequenced.

[10] = tested on: APC; test: Yeast 2-hybrid binding to the APC
Description: As used herein, the expression “binds to the APC” refers to a peptide that binds to at least one subunit of the APC, for example Apc5 or Apc10. Binding can be measured for example, by any method known in the art, including, but not limited to a yeast 2-hybrid assay.
as §2, §4

Row | Sequence | Proteins identified as interacting in a yeast 2 hybrid assay [1] | Viability of an APC mutant [2] | Binds Apc5 in a yeast 2 hybrid assay [3] | Binds Apc10 in a yeast 2 hybrid assay [4] | also measured
1 | CECLETETFHPITRHLIVPV [9-5] | Interacts with Die2, Tim44, Yrm1 | increases the viability | Binds Apc5 | – | Binds Apc5 in a yeast 2 hybrid assay ([3]; listed as SEQ ID NO. 3): binds Apc5
2 | GALKEVCICIVESVGGEVFSGP [compound 4] | Identified as interacting with Hxt2,; also recorded: Mad2, Ubc7, Rpp2, Kap122, Sfa1,; also recorded: Oac1 and Vps13 in a yeast 2- | increases the viability | Binds Apc5 | – | Binds Apc5 in a yeast 2 hybrid assay ([3]; listed as SEQ ID NO. 6): binds Apc5
3 | GRMLMTYLMYFMVLWVPRPWGPPL [1-8] | – | increases the viability | – | Binds Apc10 | Binds Apc10 in a yeast 2 hybrid assay ([4]; listed as SEQ ID NO: 8): binds Apc10
4 | NGSSHNDARVRRLTLISRLC (Artificial Sequene) [C43-4-3, Version of C43-4 where the leucine residue at position 8 is replaced with alanine] | – | – | – | binds Apc10 | Resistance to UV stress compared to C43-4 cells ([5]; FIG. 11, UV treated, for example at room temperature): increased resistance to UV stress; Growth compared to C43-4 cells ([5]; FIG. 11, for example at room temperature): increased growth; Stress resistance at low level expression ([5]; WT cells on glucose, temperature and/or UV stress, versus empty vector): increased stress resistance further; Toxicity in apc10Δ cells ([6]; glucose or galactose media, 5 sec UV (FIG. 13)): remained toxic
5 | PSYNTIKYHETHGGRHPRRQPKRPI [3-1] | Identified as interacting with Sld5,; also recorded: Hms2, Gnt1 and Vnx1 in a yeast | increases the viability | – | Binds Apc10 | Binds Apc10 in a yeast 2 hybrid assay ([4]; listed as SEQ ID NO. 5): binds Apc10
6 | RMPQWWQWMWV [C2-4B, Peptide aptamer with homology to yeast protein Sum1] | – | increases the viability | Binds Apc5 | – | Log phase growth of wild type (WT) cells ([5]; 30° C.): Neither C43-4 nor C2-4B influenced; Stress resistance when overexpressed in WT yeast cells ([5]; overexpressed, H2O2 oxidative stress, galactose carbon stress): increased stress resistance; Replicative lifespan [7]: increased; apc10Δ growth phenotype ([6]; 30 and 34° C.): suppressed; Binds Apc5 in a yeast 2 hybrid assay ([3]; listed as 02-4B): binds Apc5; Chronological lifespan [8]: increased
7 | RRCLSIRTENLAWEGKFLRV [50-1] | Identified as interacting with Pxa1,; also recorded: Rrp12, and Hfm1 in a yeast 2- | increases the viability | – | Binds Apc10 | Binds Apc10 in a yeast 2 hybrid assay ([4]; listed as SEQ ID NO: 9): binds Apc10
8 | SKWTWRMCMSWTVDRFAPVPWP [24-1] | – | increases the viability | Binds Apc5 | – | Binds Apc5 in a yeast 2 hybrid assay ([3]; listed as SEQ ID NO: 7): binds Apc5
9 | SWLNGSGGVVLWLFSNFCCG [Y36] | – | – | – | – | apc5^CA temperature sensitive (ts) growth / viability of an apc5 temperature sensitive mutant [9]: increases the viability; also recorded: rescued; also recorded: Rescues apc5^CA temperature; Binding to the APC in a yeast 2HY assay [10]: not bind the APC in a yeast 2HY
